Columns and labels:
[1] = system: Body Twist Reaction Induced by Acetic Acid; assay: Acetic acid induced body twist reaction (chemical stimuli induced pain); details: mouse
[2] = system: Dimethylbenzene Induced Mouse Ear Swelling; assay: Dimethylbenzene induced mouse ear swelling
Text: Divide the mice randomly into five groups, with each team consisting of ten mice. […] Dimethylbenzene was used to induce ear swelling of the mice.

Rat Gastric Mucosa Ulcer = assay: Side effects of causing rat gastric mucosa ulcer; details: four successive days
[3] = system: Adjuvant Induced Rat Foot Swelling; assay: Adjuvant induced rat foot swelling (primary and secondary inflammation); type: in vivo
[4] = system: Carrageenan Induced Rat Foot Swelling; assay: Carrageenan induced rat foot swelling; type: in vivo
Text: Divide the rats randomly into five groups, with each group consisting of ten rats. […] Use carrageenan induced inflammation to cause rat plantar swelling.

Structure (SMILES): Cc1cnc(NC(=O)C2=C(O)c3ccccc3S(=O)(=O)N2C)s1 [Meloxicam, reference compound]
- Numbers of Occurrence of Body Twist (x ± s) ([1]; 8.0 mg/kg oral): 18.11 ± 14.37
- Percentage of Body Twist ([1]; 8.0 mg/kg oral): 100%
- Rate of Ear Swelling (x ± s) ([2]; 8 mg/kg oral): 0.43 ± 0.36
- inhibition rate (ear swelling) ([2]; 8 mg/kg oral): 43%

Structure (SMILES): Cc1cnc(NC(=O)C2=C(O)c3sc(Cl)cc3S(=O)(=O)N2C)s1 [Example 1, 6-chlorine-4-hydroxy-2-methyl-N-[2′-(5′-methyl)thiazolyl]-2H-thieno-[2,3-e]-1,2-thiazine-3-formamide-1,1-dioxide]
- Ulcer Occurring Rate (Rat Gastric Mucosa Ulcer; 1 mg/kg oral): 0%
- Ulcer Occurring Rate (Rat Gastric Mucosa Ulcer; 2 mg/kg oral): 30%
- Ulcer Occurring Rate (Rat Gastric Mucosa Ulcer; 4 mg/kg oral): 80%
- Numbers of Occurrence of Body Twist (x ± s) ([1]; 2.0 mg/kg oral): 14.78 ± 6.38
- Percentage of Body Twist ([1]; 2.0 mg/kg oral): 90%
- Numbers of Occurrence of Body Twist (x ± s) ([1]; 4.0 mg/kg oral): 10.78 ± 8.15
- Percentage of Body Twist ([1]; 4.0 mg/kg oral): 80%
- Numbers of Occurrence of Body Twist (x ± s) ([1]; 8.0 mg/kg oral): 2.78 ± 3.49
- Percentage of Body Twist ([1]; 8.0 mg/kg oral): 60%
- Rate of Ear Swelling (x ± s) ([2]; 2 mg/kg oral): 0.56 ± 0.35
- inhibition rate (ear swelling) ([2]; 2 mg/kg oral): 56%
- Rate of Ear Swelling (x ± s) ([2]; 4 mg/kg oral): 0.67 ± 0.43
- inhibition rate (ear swelling) ([2]; 4 mg/kg oral): 67%
- Rate of Ear Swelling (x ± s) ([2]; 8 mg/kg oral): 0.81 ± 0.26
- inhibition rate (ear swelling) ([2]; 8 mg/kg oral): 81%
- Rate of the Change in the Volume of Left and Right Feet after Giving Adjuvant ([3]; 1.0 mg/kg oral, 18 hours): 0.77 ± 0.28
- Rate of the Change in the Volume of Left and Right Feet after Giving Adjuvant ([3]; 1.0 mg/kg oral, 24 hours): 0.75 ± 0.24
- Rate of the Change in the Volume of Left and Right Feet after Giving Adjuvant ([3]; 1.0 mg/kg oral, 3 days): 0.74 ± 0.28
- Rate of the Change in the Volume of Left and Right Feet after Giving Adjuvant ([3]; 1.0 mg/kg oral, 8 days): 0.75 ± 0.29
- Rate of the Change in the Volume of Left and Right Feet after Giving Adjuvant ([3]; 1.0 mg/kg oral, 19 days): 0.97 ± 0.19
- Rate of the Change in the Volume of Left and Right Feet after Giving Adjuvant ([3]; 2.0 mg/kg oral, 18 hours): 0.62 ± 0.10
- Rate of the Change in the Volume of Left and Right Feet after Giving Adjuvant ([3]; 2.0 mg/kg oral, 24 hours): 0.60 ± 0.10
- Rate of the Change in the Volume of Left and Right Feet after Giving Adjuvant ([3]; 2.0 mg/kg oral, 3 days): 0.61 ± 0.13
- Rate of the Change in the Volume of Left and Right Feet after Giving Adjuvant ([3]; 2.0 mg/kg oral, 8 days): 0.60 ± 0.14
- Rate of the Change in the Volume of Left and Right Feet after Giving Adjuvant ([3]; 2.0 mg/kg oral, 19 days): 0.69 ± 1.10
- Rate of the Change in the Volume of Left and Right Feet after Giving Adjuvant ([3]; 4.0 mg/kg oral, 18 hours): 0.65 ± 0.08
- Rate of the Change in the Volume of Left and Right Feet after Giving Adjuvant ([3]; 4.0 mg/kg oral, 24 hours): 0.65 ± 0.12
- Rate of the Change in the Volume of Left and Right Feet after Giving Adjuvant ([3]; 4.0 mg/kg oral, 3 days): 0.53 ± 0.13
- Rate of the Change in the Volume of Left and Right Feet after Giving Adjuvant ([3]; 4.0 mg/kg oral, 8 days): 0.63 ± 0.16
- Rate of the Change in the Volume of Left and Right Feet after Giving Adjuvant ([3]; 4.0 mg/kg oral, 19 days): 0.72 ± 1.12
- inhibition of the primary and secondary inflammation induced by adjuvant ([3]; 1, 2, 4 mg/kg oral): dosage dependent inhibition
- Change in the Foot Volume after Giving the Carrageenan ([4]; 1.0 mg/kg, five hours): 0.83 ± 0.28
- Change in the Foot Volume after Giving the Carrageenan ([4]; 1.0 mg/kg, four hours): 0.76 ± 0.28
- Change in the Foot Volume after Giving the Carrageenan ([4]; 1.0 mg/kg, one hour): 0.25 ± 0.15
- Change in the Foot Volume after Giving the Carrageenan ([4]; 1.0 mg/kg, six hours): 0.83 ± 0.25
- Change in the Foot Volume after Giving the Carrageenan ([4]; 1.0 mg/kg, three hours): 0.66 ± 0.34
- Change in the Foot Volume after Giving the Carrageenan ([4]; 1.0 mg/kg, two hours): 0.56 ± 0.27
- Change in the Foot Volume after Giving the Carrageenan ([4]; 2.0 mg/kg, five hours): 0.79 ± 0.25
- Change in the Foot Volume after Giving the Carrageenan ([4]; 2.0 mg/kg, four hours): 0.70 ± 0.25
- Change in the Foot Volume after Giving the Carrageenan ([4]; 2.0 mg/kg, one hour): 0.24 ± 0.11
- Change in the Foot Volume after Giving the Carrageenan ([4]; 2.0 mg/kg, six hours): 0.80 ± 0.21
- Change in the Foot Volume after Giving the Carrageenan ([4]; 2.0 mg/kg, three hours): 0.63 ± 0.54
- Change in the Foot Volume after Giving the Carrageenan ([4]; 2.0 mg/kg, two hours): 0.39 ± 0.17
- Change in the Foot Volume after Giving the Carrageenan ([4]; 4.0 mg/kg, five hours): 0.60 ± 0.31
- Change in the Foot Volume after Giving the Carrageenan ([4]; 4.0 mg/kg, four hours): 0.59 ± 0.30
- Change in the Foot Volume after Giving the Carrageenan ([4]; 4.0 mg/kg, one hour): 0.29 ± 0.20
- Change in the Foot Volume after Giving the Carrageenan ([4]; 4.0 mg/kg, six hours): 0.64 ± 0.24
- Change in the Foot Volume after Giving the Carrageenan ([4]; 4.0 mg/kg, three hours): 0.50 ± 0.20
- Change in the Foot Volume after Giving the Carrageenan ([4]; 4.0 mg/kg, two hours): 0.37 ± 0.22
- effectiveness on carrageenan induced plantar swelling compared with Meloxicam ([4]; 1, 2, 4 mg/kg vs Meloxicam 4 mg/kg): substantially more effective than the positive medicine Meloxicam
